# US7812047B2, “4-imidazolines” (Hoffman-La Roche Inc., priority 2007, dated 2010)
# Target: T1, TAAR1 (Mus musculus, UniProt Q923Y8)
# T1 construct: expressed in transfected cells; host or cells: HEK293 cells (ATCC CRL-1573), stably transfected with pIRESneo2 expression plasmid; membranes prepared
# Experiment: Radioligand binding assay on membranes of HEK293 cells stably expressing TAAR1
# Conditions: for Ki: mouse TAAR1, radioligand [3H]-rac-2-(1,2,3,4-tetrahydro-1-naphthyl)-2-imidazoline, 4° C., 30 min
# Experimental: For the construction of expression plasmids the coding sequences of human, rat and mouse TAAR 1 were amplified from genomic DNA essentially as described by Lindemann et al.. The Expand High Fidelity PCR System (Roche Diagnostics) was used with 1.5 mM Mg^2+ and purified PCR products were cloned into pCR2.1-TOPO cloning vector (Invitrogen) following the instructions of the manufacturer. PCR products were subcloned into the pIRESneo2 vector (BD Clontech, Palo Alto, Calif.), and expression vectors were sequence verified before introduction in cell lines.
# HEK293 cells (ATCC # C.RL-1573) were cultured essentially as described Lindemann et al. (2005). For the generation of stably transfected cell lines HEK293 cells were transfected with the pIRESneo2 expression plasmids containing the TAAR coding sequences (described above) with Lipofectamine 2000 (Invitrogen) according to the instructions of the manufacturer, and 24 hrs post transfection the culture medium was supplemented with 1 mg/ml G418 (Sigma, Buchs, Switzerland). After a culture period of about 10 d clones were isolated, expanded and tested for responsiveness to trace amines (all compounds purchased from Sigma) with the cAMP Biotrak Enzyme immunoassay (EIA) System (Amersham) following the non-acetylation EIA procedure provided by the manufacturer.
# Cells at confluence were rinsed with ice-cold phosphate buffered saline without Ca^2+ and Mg^2+ containing 10 mM EDTA and pelleted by centrifugation at 1000 rpm for 5 min at 4° C. The pellet was then washed twice with ice-cold phosphate buffered saline and cell pellet was frozen immediately by immersion in liquid nitrogen and stored until use at −80° C. Cell pellet was then suspended in 20 ml HEPES-NaOH (20 mM), pH 7.4 containing 10 mM EDTA, and homogenized with a Polytron (PT 3000, Kinematica) at 10,000 rpm for 10 s. The homogenate was centrifuged at 48,000×g for 30 min at 4° C. and the pellet resuspended in 20 ml HEPES-NaOH (20 mM), pH 7.4 containing 0.1 mM EDTA (buffer A), and homogenized with a Polytron at 10,000 rpm for 10 s. The homogenate was then centrifuged at 48,000×g for 30 min at 4° C. and the pellet resuspended in 20 ml buffer A, and homogenized with a Polytron at 10,000 rpm for 10 s. Protein concentration was determined by the method of Pierce (Rockford, Ill.). The homogenate was then centrifuged at 48,000×g for 10 min at 4° C., resuspended in HEPES-NaOH (20 mM), pH 7.0 including MgCl2 (10 mM) and […] homogenized with a Polytron at 10,000 rpm for 10 s.
# Binding assay was performed at 4° C. in a final volume of 1 ml, and with an incubation time of 30 min. The radioligand [^3H]-rac-2-(1,2,3,4-tetrahydro-1-naphthyl)-2-imidazoline was used at a concentration equal to the calculated Kd value of 60 nM to give a bound at around 0.1% of the total added radioligand concentration, and a specific binding which represented approximately 70-80% of the total binding. Non-specific binding was defined as the amount of [^3H]-rac-2-(1,2,3,4-tetrahydro-1-naphthyl)-2-imidazoline bound in the presence of the appropriate unlabelled ligand (10 μM). Competing ligands were tested in a wide range of concentrations […]. […] Each experiment was performed in duplicate. All incubations were terminated by rapid filtration through UniFilter-96 plates (Packard Instrument Company) and glass filter GF/C, pre-soaked for at least 2 h in polyethylenimine 0.3%, and using a Filtermate 96 Cell Harvester (Packard Instrument Company). The tubes and filters were then washed 3 times with 1 ml aliquots of cold buffer B. Filters were not dried and soaked in Ultima gold (45 μl/well, Packard Instrument Company) and bound radioactivity was counted by a TopCount Microplate Scintillation Counter (Packard Instrument Company).
# T1 sequence (Q923Y8 whole entry): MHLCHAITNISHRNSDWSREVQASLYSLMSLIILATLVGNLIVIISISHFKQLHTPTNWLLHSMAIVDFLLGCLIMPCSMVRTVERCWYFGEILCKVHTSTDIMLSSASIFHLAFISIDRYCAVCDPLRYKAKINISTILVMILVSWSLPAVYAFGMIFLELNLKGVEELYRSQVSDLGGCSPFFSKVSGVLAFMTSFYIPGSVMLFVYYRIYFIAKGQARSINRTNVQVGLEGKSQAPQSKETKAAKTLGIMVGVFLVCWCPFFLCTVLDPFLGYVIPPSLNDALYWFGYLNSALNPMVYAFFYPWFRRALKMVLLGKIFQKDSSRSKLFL
SMILES,Ki,"Kd (radioligand binding assay, species not stated, read-out: calculated Kd value of the radioligand)"
"CN(CC1CN=CN1)c1ccccc1 (stereo not shown) [Example 7, (4,5-Dihydro-3H-imidazol-4-ylmethyl)-methyl-phenyl-amine or tautomer]",0.182 µM,
"c1ccc2c(c1)CCCC2C1=NCCN1 (racemic) [[^3H]-rac-2-(1,2,3,4-tetrahydro-1-naphthyl)-2-imidazoline, reference compound]",,60 nM
"C1=NC(Cc2cccc3ccccc23)CN1 (racemic) [Example 2, rac-4-Naphthalen-1-ylmethyl-4,5-dihydro-1H-imidazole or tautomer]",0.005 µM,
"CCN(CC1CN=CN1)c1ccccc1 (racemic) [Example 4, rac-(4,5-Dihydro-3H-imidazol-4-ylmethyl)-ethyl-phenyl-amine or tautomer]",0.253 µM,
"C1=NC(CCc2ccccc2)CN1 (racemic) [Example 3, rac-4-Phenethyl-4,5-dihydro-1H-imidazole or tautomer]",0.06 µM,
"Clc1ccc(CCC2CNC=N2)cc1 (racemic) [Example 10, rac-4-[2-(4-Chloro-phenyl)-ethyl]-4,5-dihydro-1H-imidazole or tautomer]",0.327 µM,
"CCc1cccc2cccc(CC3CNC=N3)c12 (racemic) [Example 6, (RS)-4-(8-Ethyl-naphthalen-1-ylmethyl)-4,5-dihydro-1H-imidazole or tautomer]",0.078 µM,
